Data as given in US20250360116A1, “PICOLINIC-2-CARBOXAMIDE HYBRIDIZED WITH ANTHRAQUINONE DERIVATIVES, METHODS OF PREPARATION, AND A PHARMACEUTICAL COMPOSITION COMPRISING THE SAME” (AL-ZAYTOONAH UNIVERSITY OF JORDAN, priority 2023, published 2025).
Marks after values point to notes of the source that are not given here.

Tested on: Triton WR-1339 induced hyperlipidemic Wistar Rats
Assay: Plasma lipid levels in triton WR-1339 induced hyperlipidemia in rats
Assay type: in vivo
Conditions: for HDL-C (plasma) / LDL-C (plasma) / TC (plasma) / TG (plasma): 20 mg/kg intragastric after triton WR-1339 200 mg/Kg i.p., about 6 hours, mean ± SEM, five rats; for Effect on elevated TC levels / Effect on elevated plasma LDL-C levels / Effect on elevated plasma TG levels / Effect on plasma HDL-C levels: in words, in comparison with HCG, 20 mg/kg intragastric, 6 hours
Procedure: The study was conducted on twenty-five adult male Wistar Rats weighting 200±10 g. Wistar Rats were bred in the animal care center of Faculty of Pharmacy in Al-Zaytoonah University of Jordan. The animals were kept on 12 hours' light/dark cycle, at room temperature (25±1° C.) with free access to food and water. The rats were divided randomly into five groups each consist of five rats, whereby Group I was the normal control group (“NCG”) that received an intraperitoneal administration of normal saline, Group II was the hyperlipidemic control group (“HCG”) that received an intraperitoneal injection of about 200 mg/Kg triton WR-1339 dissolved in about 4% dimethylsulfoxide (“DMSO”)/corn oil, Groups (III, IV, V) rats received intraperitoneal injection of about 200 mg/Kg triton WR-1339.
After about 6 hours of treatment, the rats were anaesthetized with diethyl ether and blood was collected. The blood samples were immediately centrifuged at about 3000 rpm for about 10 minutes and the serum was used for lipid profile measurements (TG, LDL-C, TC and HDL-C) by an automated chemistry analyzer (Model Erba XL-300, Mannheim, Germany). Furthermore, liver samples were collected, and then kept in liquid nitrogen, and stored at (−80° C.) for the mRNA extraction as described in Example 5 below.
The plasma of TG, TC, LDL-C and HDL-C levels in HCG treated at 6 hours after administration of triton WR-1339 are shown in FIG. 2.
After the injection of Wistar Rats with Triton WR-1339 in Example 3, Groups III, IV, V received an intragastric administration of (20 mg/kg by weight) of compounds C1, C2 and C3, respectively, dissolved in about 4% DMSO/corn oil. FIGS. 3, 4, 5, 6 illustrate bar charts showing the effect of the compounds C1, C2, and C3 on the Triton WR-1339 induced hyperlipidemic Wistar Rats after about 6 hours of treatment on TG, TC, LDL-C, and HDL-C.

Structure (SMILES)	HDL-C (plasma)	LDL-C (plasma)	TC (plasma)	TG (plasma)	Effect on elevated TC levels	Effect on elevated plasma LDL-C levels	Effect on elevated plasma TG levels	Effect on plasma HDL-C levels
O=C(Nc1ccc2c(c1)C(=O)c1ccccc1C2=O)c1ccccn1 [Compound C2, N-(9,10-dioxo-9,10-dihydroanthracen-2-yl) picolinamide]	38 ± 4.4 ^a mg/dl	9 ± 0.6 ^a mg/dl	75 ± 15.2 ^a mg/dl	985 ± 15.3 ^a mg/dl	significantly decreased	significantly lowered	significantly decreased	significantly increased
O=C(Nc1ccc(O)c2c1C(=O)c1ccccc1C2=O)c1ccccn1 [Compound C3, N-(4-hydroxy-9,10-dioxo-9,10-dihydroanthracen-1-yl) picolinamide]	22 ± 2 mg/dL	11 ±1.2 ^ mg/dl	122 ± 11 mg/dL	1375 ± 23 mg/dL	non-significant effect	non-significant effect	non-significant effect	non-significant effect
O=C(Nc1cccc2c1C(=O)c1ccccc1C2=O)c1ccccn1 [Compound C1, N-(9,10-dioxo-9,10-dihydroanthracen-1-yl) picolinamide]	56 ± 4.6 ^b mg/dl	6 ± 0.7 ^b mg/dl	42 ± 10 ^b mg/dl	145 ± 14.2 ^b mg/dl	significantly decreased	significantly lowered	significantly decreased	significantly increased
